The subject of the test is Human Umbilical Vein Endothelial cells (VEGF-stimulated). Put plainly: HUVEC proliferation assay, VEGF-stimulated. To be noted: VEGF 50 ng/mL, 72 h, CyQuant, read-out: inhibited VEGF-stimulated HUVEC proliferation at a level. The format is cell-based. In a few lines:
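Pooled-donor HUVECs (passage 2–3) seeded in DMEM+10% FBS for 22 h, then pre-treated 2–3 h with five-point, five-fold compound dilutions (0.25% DMSO final). Stimulated with 50 ng/mL VEGF (bFGF 20 ng/mL on separate plates) for 72 h at 37 °C. CyQuant fluorescence (485/530 nm) after freeze-thaw; IC50 from 4-parameter fit.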
As for `CNc1nccc(CNc2ncccc2C(=O)Nc2cc(OC[C@H]3CCCN3C(C)=O)cc(C(F)(F)F)c2)n1` [Example 1085, N-(3-((((2R)-1-acetyl-2-pyrrolidinyl)methyl)oxy)-5-(trifluoromethyl)phenyl)-2-(((2-(methylamino)-4-pyrimidinyl)methyl)amino)-3-pyridinecarboxamide], the IC50 was < 50 nM.
For `CNc1nccc(CNc2ncccc2C(=O)Nc2ccc3c(c2)CN(C)CC3(C)C)n1` [Example 1041, 2-(((2-(methylamino)-4-pyrimidinyl)methyl)amino)-N-(2,4,4-trimethyl-1,2,3,4-tetrahydro-7-isoquinolinyl)-3-pyridinecarboxamide], the IC50 is < 50 nM.
With `CC(C)c1ccc(NC(=O)c2cccnc2NCc2ccc3ocnc3c2)cc1` [Example 1120, 2-((1,3-Benzoxazol-5-ylmethyl)amino)-N-(4-(1-methylethyl)phenyl)-3-pyridinecarboxamide] the figure was < 50 nM; with `CNc1nccc(CNc2ncccc2C(=O)Nc2cc(O[C@@H]3CCOC3)cc(C(F)(F)F)c2)n1` [Example 1084, 2-(((2-(methylamino)-4-pyrimidinyl)methyl)amino)-N-(3-((3R)-tetrahydro-3-furanyloxy)-5-(trifluoromethyl)phenyl)-3-pyridinecarboxamide], < 50 nM; with `CC1(C)CNCc2cc(NC(=O)c3cccnc3NCc3ccc4ncccc4c3)ccc21` [Example 1061, N-(4,4-dimethyl-1,2,3,4-tetrahydro-7-isoquinolinyl)-2-((6-quinolinylmethyl)amino)-3-pyridinecarboxamide], < 50 nM.
For the compound `CNc1nccc(CNc2ncccc2C(=O)Nc2ccc3c(c2)N(C(=O)CN(C)C)CC3(C)C)n1` [Example 1039, N-(1-(N,N-Dimethylglycyl)-3,3-dimethyl-2,3-dihydro-1H-indol-6-yl)-2-(((2-(methylamino)-4-pyrimidinyl)methyl)amino)-3-pyridinecarboxamide], the IC50 is < 50 nM.
Regarding `CC1(C)CCNc2cc(NC(=O)c3cccnc3NCc3ccnc(N)c3)ccc21` [Example 1111, 2-[(2-Amino-pyridin-4-ylmethyl)-amino]-N-(4,4-dimethyl-1,2,3,4-tetrahydro-quinolin-7-yl)-nicotinamide], the IC50 is < 50 nM.
`CN1CC(C)(C)c2ccc(NC(=O)c3cccnc3NCc3ccncc3)cc21` [Example 1184, 2-[(Pyridin-4-ylmethyl)-amino]-N-(1,3,3-trimethyl-2,3-dihydro-1H-indol-6-yl)-nicotinamide]: the IC50 was < 50 nM.
Regarding `CN1CCC[C@@H]1COc1cc(NC(=O)c2cccnc2NCc2ccncc2)cc(C(F)(F)F)c1` [Example 917, (R) N-[3-(1-Methyl-pyrrolidin-2-ylmethoxy)-5-trifluoromethyl-phenyl]-2-[(pyridin-4-ylmethyl)-amino]-nicotinamide], the IC50 was < 50 nM.
For the compound `CNc1nccc(CNc2ncccc2C(=O)Nc2cc(OC[C@@H]3CCCN3C)cc(C(F)(F)F)c2)n1` [Example 1144, 2-[(2-Methylamino-pyrimidin-4-ylmethyl)-amino]-N-[3-(1-methyl-pyrrolidin-2-ylmethoxy)-5-trifluoromethyl-phenyl]-nicotinamide], the IC50 was < 50 nM.
On to `CNc1nccc(CNc2ncccc2C(=O)Nc2cc(OC[C@H]3CCCN3C)cc(C(F)(F)F)c2)n1` [Example 1044, 2-(((2-(methylamino)-4-pyrimidinyl)methyl)amino)-N-(3-((((2R)-1-methyl-2-pyrrolidinyl)methyl)oxy)-5-(trifluoromethyl)phenyl)-3-pyridinecarboxamide], for which the IC50 is < 50 nM.
As for `CC(C)(C)c1ccc(NC(=O)c2cccnc2NCc2ccnc(OCCCN3CCOCC3)c2)cc1` [Example 904, N-(4-tert-Butyl-phenyl)-2-{[2-(3-morpholin-4-yl-propoxy)-pyridin-4-ylmethyl]-amino}-nicotinamide], the IC50 was < 50 nM.
Turning to `CC1(C)CNc2cc(NC(=O)c3cccnc3NCc3ccncc3)ccc21` [Example 133, N-(3,3-Dimethylindolin-6-yl){2-[(4-pyridylmethyl)amino](3-pyridyl)}carboxamide], the IC50 was < 50 nM.
Under `O=C(Nc1cccc(C(F)(F)F)c1)c1cccnc1NCc1ccncc1` [Example 82, 2-[(Pyridin-4-ylmethyl)-amino]-N-(3-trifluoromethyl-phenyl)-nicotinamide] stands < 50 nM; under `CNc1cc(CNc2ncccc2C(=O)Nc2ccc3c(c2)NCC3(C)C)ccn1` [Example 1104, N-(3,3-Dimethyl-2,3-dihydro-1H-indol-6-yl)-2-[(2-methylamino-pyridin-4-ylmethyl)-amino]-nicotinamide], < 50 nM; under `CC1(C)CCNc2cc(NC(=O)c3cccnc3NCc3ccncn3)ccc21` [Example 1110, N-(4,4-Dimethyl-1,2,3,4-tetrahydro-quinolin-7-yl)-2-[(pyrimidin-4-ylmethyl)-amino]-nicotinamide], < 50 nM.
Take `CCN1CCC(C)(C)c2ccc(NC(=O)c3cccnc3NCc3ccnc(N)c3)cc21` [Example 1125, 2-[(2-Amino-pyridin-4-ylmethyl)-amino]-N-(1-ethyl-4,4-dimethyl-1,2,3,4-tetrahydro-quinolin-7-yl)-nicotinamide]: the IC50 was < 50 nM.
With `CCc1cc(CNc2ncccc2C(=O)Nc2ccc(C(C)(C)C)cc2)ccn1` [Example 873, N-(4-tert-Butyl-phenyl)-2-{[2-ethylpyridin-4-ylmethyl]-amino}-nicotinamide], the IC50 was < 50 nM.
Under `CNc1cc(CNc2ncccc2C(=O)Nc2ccc3c(c2)N(C(C)=O)CC3(C)C)ccn1` [Example 1103, N-(1-Acetyl-3,3-dimethyl-2,3-dihydro-1H-indol-6-yl)-2-[(2-methylamino-pyridin-4-ylmethyl)-amino]-nicotinamide] stands < 50 nM; under `CNc1cc(CNc2ncccc2C(=O)Nc2ccc3c(c2)CNCC3(C)C)ccn1` [Example 1130, N-(4,4-Dimethyl-1,2,3,4-tetrahydro-isoquinolin-7-yl)-2-[(2-methylamino-pyridin-4-ylmethyl)-amino]-nicotinamide], < 50 nM; under `O=C(Nc1cc(NC(=O)c2cccnc2NCc2ccncc2)cc(C(F)(F)F)c1)O[C@H]1CCOC1` [Example 1088, (3S)-tetrahydro-3-furanyl 3-(((2-((4-pyridinylmethyl)amino)-3-pyridinyl)carbonyl)amino)-5-(trifluoromethyl)phenylcarbamate], < 50 nM.
Under `CN(C)CCOCCOc1cc(CNc2ncccc2C(=O)Nc2ccc(C(C)(C)C)cc2)ccn1` [Example 151, (2-{[(2-{2-[2-(Dimethylamino)ethoxy]ethoxy}(4-pyridyl))methyl]amino}(3-pyridyl))-N-[4-(tert-butyl)phenyl]carboxamide] stands < 50 nM; under `O=C(Nc1cccc(C(F)(F)F)c1)c1cccnc1NCc1ccc2c(c1)CCO2` [Example 827, {2-[(2,3-Dihydrobenzo[b]furan-5-ylmethyl)amino](3-pyridyl)}-N-[3-(trifluoromethyl)phenyl]carboxamide], < 50 nM; under `O=C(Nc1ccc2c(c1)N(CCN1CCCCC1)CC2)c1cccnc1NCc1ccncc1` [Example 130, N-[1-(2-Piperidylethyl)indolin-6-yl]{2-[(4-pyridylmethyl)amino](3-pyridyl)}carboxamide], < 50 nM.

The values above are taken from patent US7687643B2, “Process for preparing 3,3-dimethylindolines” (Amgen Inc., priority 2001, dated 2010).
